Experimental findings from PMC9838390, “Discovery and biosynthesis of karnamicins as angiotensin converting enzyme inhibitors” (Nature Communications, 2023) are described below.

The assay relates to KnmB1. The assay can be described thus: Hydrogen peroxide formation assay of KnmB1 and variants. The assay is classed as biochemical, L. rhizosphaerae NEAU-A2. To be noted: 30 °C, average of 3. Here is the method:
Hydrogen peroxide formation assay and NADPH oxidation
The hydrogen peroxide formed from KnmB1, KnmB2 and their variants were measured using the Hydrogen Peroxide Assay Kit (Beyotime Industrial Co. Ltd, Shanghai, China)4-5. 5–100 µL of enzyme reaction mixture was added to 100 µL of working reagent (S0038-1). The mixture was incubated for 30 min at 25 °C, at which time the absorbance at 560 nm was measured by NanoDrop 2000c (Fisher Scientific). […]
Spectral data for new compounds […]
Supplementary Figure 131. H2O2 generation and NADPH oxidation for KnmB2, KnmB1 and their variants. (a) Hydrogen peroxide formation of KnmB2 and variants. […]
(b) Hydrogen peroxide formation of KnmB1 and variants. Reaction conditions: 100 µL system containing 50 mM Tris-HCl buffer (pH 7.5), 1 mM NADPH, 16 μM KnmB2, 17 μM KnmB1 or variants, 0.1 mM compound 24,1 mM SAM, and 2 […]
(1 picture or pasted object on this page, not shown here) […]
μM KnmF at 30 °C for 3h. (c) Hydrogen peroxide formation of KnmB1 and variants.
Reaction conditions: 100µL system containing 50 mM Tris-HCl buffer (pH 7.5), 0.3 mM NADPH, and 6 μM KnmB1 or variants, or 0.1 mM 24 at 30 °C for 30 min. […]
2 μM KnmB2 or variants, or 0.1 mM substrate 24/32. […]
Source data are provided as a Source Data file. […]

In the case of `CC(C)CCCCc1nc(-c2cc(O)cc(C(N)=O)n2)cs1` [Compound 24], the “hydrogen peroxide formation of KnmB1 (absorbance UV λ=560 nm), average value” runs as follows: (Fig. S131b, 1 mM NADPH, 17 μM KnmB1, 0.1 mM compound, 3 h) 0.5214; (Fig. S131c, 0.3 mM NADPH, 6 μM KnmB1, 0.1 mM compound, 30 min) 1.0442.
